Results reported in the supplement of paper PMC8253809.

Legend:
[1] = system: iAstro (astrocyte control); assay: EC50 (inflection of fitted growth-inhibition curve) (log10 M)
In short: (§1)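 Treatment used a pin tool and a 10-point threefold dilution series, mean top concentration 35 μM, run in triplicate on patient-derived pHGG/DIPG cell lines and astrocyte controls in 1% Geltrex-coated 384-well plates. Plates were kept at 37 °C, 5% CO2 for 7 days (iAstro: 3 days). Log2-transformed CellTiter-Glo luminescence was scaled per plate to % activity between negative (solvent) and positive control wells and pooled before fitting. EC50 and maximal response (yFin) came from the three- or four-parameter log-logistic fit chosen by lowest AICc.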

[2] = system: HABS (astrocyte control); assay: as above
In short: as §1

[3] = system: HGGX2 (paediatric high-grade glioma line); assay: as above
In short: as §1

[4] = system: DIPGX37 (H3.3 K27M diffuse intrinsic pontine glioma line); assay: as above
In short: as §1

[5] = system: SUDIPGVI (diffuse intrinsic pontine glioma line); assay: as above
In short: as §1

[6] = system: SUDIPGXIX (diffuse intrinsic pontine glioma line); assay: as above
In short: as §1

[7] = system: HGGX6 (H3.3 G34R paediatric high-grade glioma line); assay: as above
In short: as §1

[8] = system: SUDIPGIV (diffuse intrinsic pontine glioma line); assay: as above
In short: as §1

[9] = system: HGGX42 (H3.3 G34R paediatric high-grade glioma line); assay: as above
In short: as §1

[10] = system: SUDIPGXIII (diffuse intrinsic pontine glioma line); assay: as above
In short: as §1

[11] = system: DIPGX9 (diffuse intrinsic pontine glioma line); assay: as above
In short: as §1

[12] = system: HGGX39 (paediatric high-grade glioma line); assay: as above
In short: as §1

[13] = system: DIPGX29 (H3.3 K27M diffuse intrinsic pontine glioma line); assay: as above
In short: as §1

[14] = system: DIPGX7 (H3.3 K27M diffuse intrinsic pontine glioma line); assay: as above
In short: as §1

[15] = system: SUDIPGXVII (diffuse intrinsic pontine glioma line); assay: as above
In short: as §1

[16] = system: SUDIPGXXI (diffuse intrinsic pontine glioma line); assay: as above
In short: as §1

[17] = system: iAstro; assay: area under dose-response curve of % growth inhibition (log2 RLU vs DMSO / staurosporine), 1e-11 to 1e-4 M (% x log10 M); higher = more growth inhibition
In short: (§2)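 Patient-derived pHGG/DIPG cell lines and astrocytes were plated in 384-well plates coated with 1% Geltrex and treated in triplicate with a 10-point threefold dilution series whose mean top concentration was 35 μM, for 7 days (3 days for iAstro) at 37 °C and 5% CO2. CellTiter-Glo luminescence was log2-transformed and scaled on each plate to % activity between solvent and positive controls. Area under the curve came from the trapezoid rule applied to a fitted log-logistic curve, or to a smoothing spline where the sigmoid fit failed.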

[18] = system: SUDIPGVI; assay: as above
In short: as §2

| Structure (SMILES) | EC50 (log10 M) [1] | EC50 (log10 M) [2] | EC50 (log10 M) [3] | EC50 (log10 M) [4] | EC50 (log10 M) [5] | EC50 (log10 M) [6] | EC50 (log10 M) [7] | EC50 (log10 M) [8] | EC50 (log10 M) [9] | EC50 (log10 M) [10] | EC50 (log10 M) [11] | EC50 (log10 M) [12] | EC50 (log10 M) [13] | EC50 (log10 M) [14] | EC50 (log10 M) [15] | EC50 (log10 M) [16] | area under dose-response curve [17] | area under dose-response curve [18] |
| --- | --- | --- | --- | --- | --- | --- | --- | --- | --- | --- | --- | --- | --- | --- | --- | --- | --- | --- |
| Cc1c(C2CCN(CCc3ccccc3)CC2)noc1-c1ccc(Cl)cc1 [L-741,742] | -5 | -4.83 | -4.83 | -4.93 | -4.81 | -4.84 | -4.87 | -4.89 | -4.88 | -4.71 | -5.35 | -4.87 | -4.99 | -4.84 | -4.87 | -4.91 | 41.1 | 36.1 |
| C[C@@]12OC(=O)[C@]1([C@@H](O)[C@@H]1C=CCCC1)NC(=O)[C@@H]2CCCl [MARIZOMIB] | -8.18 | -6.2 | -7.46 | -6.54 | -7.2 | -6.19 | -6.1 | -7.41 | -6.62 | -6.99 | -6.99 | -6.39 | -7.05 | -6.48 | -6.26 | -7.88 | 375 | 331 |
| Nc1ccccc1NC(=O)c1ccc(CNc2nccc(-c3cccnc3)n2)cc1 [MOCETINOSTAT] | -5.85 | -5.43 | -5.76 | -5.51 | -5.98 | -5.46 | -5.51 | -5.43 | -5.52 | -5.46 | -6.26 | -5.37 | -5.81 | -5.42 | -5.48 | -6.53 | 70.7 | 184 |
| O=C(Nc1ccc([N+](=O)[O-])cc1Cl)c1cc(Cl)ccc1O [NICOLSAMIDE] | -5.43 | -5.14 | -5.27 | -5.74 | -5.47 | -5.31 | -5.18 | -5.58 | -5.17 | -5.59 | -5.44 | -5.17 | -5.58 | -5.77 | -5.39 | -6.1 | 49.6 | 109 |
| CCNC(=O)c1noc(-c2cc(C(C)C)c(O)cc2O)c1-c1ccc(CN2CCOCC2)cc1 [NVP-AUY922] | -6.08 | -7.28 | -7.61 | -7.47 | -7.36 | -7.59 | -7.36 | -7.28 | -7.81 | -7.11 | -7.48 | -7.42 | -6.44 | -5.82 | -7.41 | -6.65 | 118 | 118 |
| CCCS(=O)(=O)c1nc(NC2CC2)cc(-c2ccc3c(ccn3C3CC(C)(C)NC(C)(C)C3)c2)n1 [NVS-1] | -5.72 | -5.42 | -5.95 | -5.99 | -5.79 | -5.92 | -5.83 | -5.52 | -5.95 | -5.49 | -5.62 | -5.57 | -6.09 | -5.64 | -5.75 | -5.34 | 143 | 158 |
| COC1=CC(c2cc3ccccc3[nH]2)=N/C1=C\c1[nH]c(C)cc1C [OBATOCLAX] | -5.45 | -5.01 | -5.97 | -5.01 | -5.71 | -5.51 | -5.1 | -5 | -5.63 | -4.99 | -5.05 | -5.02 | -5.01 | -5.53 | -5 | -5.64 | 141 | 210 |
| C[C@@H]1O[C@@H](O[C@H]2C[C@@H](O)[C@]3(CO)[C@H]4[C@H](O)C[C@]5(C)[C@@H](C6=CC(=O)OC6)CC[C@]5(O)[C@@H]4CC[C@]3(O)C2)[C@H](O)[C@H](O)[C@H]1O [OUABAIN] | -6.91 | -5.89 | -6.55 | -6.7 | -6.13 | -6.41 | -6.64 | -6.75 | -6.47 | -6.47 | -6.37 | -6.9 | -7.26 | -6.78 | -6.53 | -6.79 | 135 | 123 |
| Cc1[nH]c2ccccc2c1CCNCc1ccc(/C=C/C(=O)NO)cc1 [PANOBINOSTAT] | -6.78 | -6.59 | -6.89 | -6.87 | -6.87 | -6.75 | -6.93 | -6.92 | -6.95 | -6.04 | -7.16 | -6.81 | -6.97 | -6.73 | -6.69 | -7.22 | 134 | 249 |
| OC1(c2ccc(Cl)c(C(F)(F)F)c2)CCN(CCCC(c2ccc(F)cc2)c2ccc(F)cc2)CC1 [PENFLURIDOL] | -5.63 | -4.88 | -5.63 | -5.35 | -5.28 | -5.53 | -5.23 | -5.56 | -5.63 | -5.21 | -5.4 | -5.24 | -5.43 | -5.6 | -5.21 | -5.9 | 136 | 126 |
| Cc1ccc(C(=O)Nc2ccc(CN3CCN(C)CC3)c(C(F)(F)F)c2)cc1C#Cc1cnc2cccnn12 [PONATINIB] | -5.12 | -5.89 | -5.61 | -5.38 | -4.86 | -5.29 | -5.11 | -4.81 | -5.22 | -4.88 | -6.72 | -5.47 | -5.28 | -5.61 | -4.84 | -7.54 | 128 | 119 |
| O=C(Nc1ccccc1-c1cn2c(CN3CCNCC3)csc2n1)c1cnc2ccccc2n1 [SRT1720] | -5.43 | -4.93 | -5.41 | -5.19 | -5.36 | -5.34 | -5.14 | -5.41 | -5.49 | -4.96 | -5.43 | -5.08 | -5.16 | -5.4 | -4.97 | -5.7 | 131 | 154 |
